Reference: article PMC8241846, “Structure and lipid dynamics in the maintenance of lipid asymmetry inner membrane complex of A. baumannii” (Communications Biology, 2021)
Blank lines part the entries; values can stand above or below the molecule they belong to.

What was measured:
[1] = target: T1, MlaBDEFab (Acinetobacter baumannii, UniProt A0A4P2WWN2+V5V921+V5V9F4); assay: cryo-EM map, […] A (no model deposited); assay type: binding; conditions: protein mixed 1:1 with 20 mM nucleotide, pH 8.0, 0.025% DDM; same nucleotide site; EMD-11084 in Table 1
T1 construct: gene ttg2A; full mla operon expressed in E. coli BL21(DE3), Ni-NTA purified (tag not described), in DDM; C2 complex MlaF2-MlaE2-MlaD6-MlaB2 (about half of particles with one MlaB)

[2] = target: T1, MlaBDEFab; assay: cryo-EM structure, […] A; assay type: binding; conditions: Mg2+ seen in site; protein mixed 1:1 with 20 mM nucleotide, pH 8.0, 0.025% DDM; nucleotide site at MlaF/MlaE/MlaD interface (MlaF Lys55, Ser51, His211, Arg26); non-hydrolysable ATP analogue
[3] = target: MlaD of the A. baumannii MlaBDEF complex (MlaBDEFab) (Acinetobacter baumannii) (UniProt V5V921); assay: cryo-EM structure; single-particle cryo-EM of the purified MlaBDEFab complex in DDM; 20 mM Hepes (pH 7.0), 150 mM NaCl, 0.025% (w/v) DDM; with AppNHp (3.9 Å, atomic model), also apo (~4.2 Å) and with ADP (~4.4 Å)
[4] = target: MlaF of the A. baumannii MlaBDEF complex (MlaBDEFab) (Acinetobacter baumannii); assay: as above

Molecule: Nc1ncnc2c1ncn2[C@@H]1O[C@H](COP(=O)(O)OP(=O)(O)O)[C@@H](O)[C@H]1O [ADP]
cryo-EM map, 4.43 A (no model deposited) [1]: confirms the presence of nucleotide in the AppNHp and ADP maps

Molecule: Nc1ncnc2c1ncn2[C@@H]1O[C@H](COP(=O)(O)OP(=O)(O)NP(=O)(O)O)[C@@H](O)[C@H]1O [AppNHp]
cryo-EM structure, 3.92 A [2]: we observed clear density of the nucleotide and magnesium, within the MlaF binding pocket

Next, values leading:

stoichiometry N [3]: 6
Molecule: MlaD of the A. baumannii MlaBDEF complex (MlaBDEFab) (from UniProt V5V921 1-226) (natural protein)

percent of particles with MlaB bound to both MlaF [4]: 50%
B1: MlaB of the A. baumannii MlaBDEF complex (MlaBDEFab) (natural protein)
chain: MVQYLNQELVVSGKIDFENAEQQYQAGLAIIKKQTSFPLIVDLKQLEHGNTLALAVLVQWLRQTPQKSGLHFKNVPEKMLKIIQACHLQEDLHLV
